Reference: the supplement of paper PMC8741786
In brackets after ≈: the same amount, converted by molar mass.

Columns and labels:
Assay in all cases: minimum inhibitory concentration (ETEST)
Neisseria lactamica = settings: population: general population, antibiotic use in previous 6 months: No
Protocol: (§1)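 Oropharyngeal Neisseria isolates from MSM and employees in Belgium were identified to species by MALDI-TOF MS. MICs of azithromycin, ceftriaxone and ciprofloxacin were determined by ETEST on GC agar after 24 h at 36.5 °C and 5-7% CO2, in mg/L. Values beyond the strip range are reported as >256 (azithromycin) or <0.016 (ceftriaxone); isolates that did not grow are NA.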

Neisseria meningitidis = tested on: Neisseria meningitidis
Protocol: as §1

Neisseria oralis = settings: population: general population, antibiotic use in previous 6 months: No
Protocol: as §1

Neisseria cinerea = settings: population: general population, antibiotic use in previous 6 months: No
Protocol: as §1

Neisseria elongata = settings: population: general population, antibiotic use in previous 6 months: No
Protocol: as §1

Neisseria gonorrhoeae = settings: isolate id (sample isolate): 19113052_3; population: MSM; antibiotic use in previous 6 months: No
Protocol: as §1

Neisseria bacilliformis = settings: isolate id (sample isolate): Co000780_5; population: general population; antibiotic use in previous 6 months: No
Protocol: as §1

CC[C@H]1OC(=O)[C@H](C)[C@@H](O[C@H]2C[C@@](C)(OC)[C@@H](O)[C@H](C)O2)[C@H](C)[C@@H](O[C@@H]2O[C@H](C)C[C@H](N(C)C)[C@H]2O)[C@](C)(O)C[C@@H](C)CN(C)[C@H](C)[C@@H](O)[C@]1(C)O [azithromycin]
Settings	minimum inhibitory concentration [mg/L]
Neisseria cinerea, isolate id (sample isolate): Co000769_3	1 (≈ 1.34 µM)
Neisseria cinerea, isolate id (sample isolate): Co000776_4	24 (≈ 32 µM)
Neisseria cinerea, isolate id (sample isolate): Co000776_5	32 (≈ 42.7 µM)
Neisseria cinerea, isolate id (sample isolate): Co000782_1	2 (≈ 2.67 µM)
Neisseria elongata, isolate id (sample isolate): Co000767_3	0.5 (≈ 0.668 µM)
Neisseria elongata, isolate id (sample isolate): Co000780_1	0.75 (≈ 1 µM)
Neisseria elongata, isolate id (sample isolate): Co000783_4	0.38 (≈ 0.507 µM)
Neisseria lactamica, isolate id (sample isolate): Co000761_1	2 (≈ 2.67 µM)
Neisseria lactamica, isolate id (sample isolate): Co000771_1	1 (≈ 1.34 µM)
Neisseria oralis, isolate id (sample isolate): Co000761_7	2 (≈ 2.67 µM)
Neisseria oralis, isolate id (sample isolate): Co000763_1	1 (≈ 1.34 µM)
Neisseria oralis, isolate id (sample isolate): Co000766_2	1.5 (≈ 2 µM)
Neisseria oralis, isolate id (sample isolate): Co000770_1	2 (≈ 2.67 µM)
Neisseria oralis, isolate id (sample isolate): Co000774_1	3 (≈ 4.01 µM)
Neisseria oralis, isolate id (sample isolate): Co000776_1	4 (≈ 5.34 µM)
Neisseria oralis, isolate id (sample isolate): Co000776_1.1	3 (≈ 4.01 µM)
Neisseria oralis, isolate id (sample isolate): Co000779_2	4 (≈ 5.34 µM)
Neisseria oralis, isolate id (sample isolate): Co000790_5	2 (≈ 2.67 µM)

Neisseria meningitidis
Settings	minimum inhibitory concentration [mg/L]
isolate id (sample isolate): 19040471_1, population: MSM, antibiotic use in previous 6 months: No	0.38 (≈ 0.507 µM)
isolate id (sample isolate): 19040855_1, population: MSM, antibiotic use in previous 6 months: No	0.25 (≈ 0.334 µM)
isolate id (sample isolate): 19040874_2, population: MSM, antibiotic use in previous 6 months: No	2 (≈ 2.67 µM)
isolate id (sample isolate): 19040900_2, population: MSM, antibiotic use in previous 6 months: No	0.75 (≈ 1 µM)
isolate id (sample isolate): 19042150_2, population: MSM, antibiotic use in previous 6 months: Yes	1.5 (≈ 2 µM)
isolate id (sample isolate): 19042756_3, population: MSM, antibiotic use in previous 6 months: Yes	0.38 (≈ 0.507 µM)
isolate id (sample isolate): 19043201_1, population: MSM, antibiotic use in previous 6 months: No	0.75 (≈ 1 µM)
isolate id (sample isolate): 19043201_2, population: MSM, antibiotic use in previous 6 months: No	0.38 (≈ 0.507 µM)
isolate id (sample isolate): 19043274_1, population: MSM, antibiotic use in previous 6 months: Yes	0.5 (≈ 0.668 µM)
isolate id (sample isolate): 19043274_2, population: MSM, antibiotic use in previous 6 months: Yes	0.38 (≈ 0.507 µM)
isolate id (sample isolate): 19051853_1, population: MSM, antibiotic use in previous 6 months: No	0.38 (≈ 0.507 µM)
isolate id (sample isolate): 19052394_3, population: MSM, antibiotic use in previous 6 months: Yes	0.5 (≈ 0.668 µM)
isolate id (sample isolate): 19052434_1, population: MSM, antibiotic use in previous 6 months: Yes	0.75 (≈ 1 µM)
isolate id (sample isolate): 19060069_1, population: MSM, antibiotic use in previous 6 months: Yes	1 (≈ 1.34 µM)
isolate id (sample isolate): 19060069_2, population: MSM, antibiotic use in previous 6 months: Yes	1 (≈ 1.34 µM)
isolate id (sample isolate): 19060089_2, population: MSM, antibiotic use in previous 6 months: Yes	4 (≈ 5.34 µM)
isolate id (sample isolate): 19061666_1, population: MSM, antibiotic use in previous 6 months: Yes	3 (≈ 4.01 µM)
isolate id (sample isolate): 19062990_1, population: MSM, antibiotic use in previous 6 months: Yes	0.5 (≈ 0.668 µM)
isolate id (sample isolate): 19070019_2, population: MSM, antibiotic use in previous 6 months: No	0.38 (≈ 0.507 µM)
isolate id (sample isolate): 19070019_4, population: MSM, antibiotic use in previous 6 months: No	0.38 (≈ 0.507 µM)
isolate id (sample isolate): 19070047_1, population: MSM, antibiotic use in previous 6 months: No	0.5 (≈ 0.668 µM)
isolate id (sample isolate): 19082621_2, population: MSM, antibiotic use in previous 6 months: No	0.5 (≈ 0.668 µM)
isolate id (sample isolate): 19091461_1, population: MSM, antibiotic use in previous 6 months: No	6 (≈ 8.01 µM)
isolate id (sample isolate): 19091461_2, population: MSM, antibiotic use in previous 6 months: No	4 (≈ 5.34 µM)
isolate id (sample isolate): 19091973_1, population: MSM, antibiotic use in previous 6 months: No	0.5 (≈ 0.668 µM)
isolate id (sample isolate): 19092429_3, population: MSM, antibiotic use in previous 6 months: No	0.38 (≈ 0.507 µM)
isolate id (sample isolate): 19103457_1, population: MSM, antibiotic use in previous 6 months: No	0.38 (≈ 0.507 µM)
isolate id (sample isolate): 19103457_4, population: MSM, antibiotic use in previous 6 months: No	0.25 (≈ 0.334 µM)
isolate id (sample isolate): 19110394_1, population: MSM, antibiotic use in previous 6 months: No	0.5 (≈ 0.668 µM)
isolate id (sample isolate): 19113049_3, population: MSM, antibiotic use in previous 6 months: No	0.19 (≈ 0.254 µM)
isolate id (sample isolate): 19113049_6, population: MSM, antibiotic use in previous 6 months: No	0.25 (≈ 0.334 µM)
isolate id (sample isolate): Co000765_1, population: general population, antibiotic use in previous 6 months: No	0.5 (≈ 0.668 µM)
isolate id (sample isolate): Co000790_1, population: general population, antibiotic use in previous 6 months: No	2 (≈ 2.67 µM)
isolate id (sample isolate): Co000790_3, population: general population, antibiotic use in previous 6 months: No	1 (≈ 1.34 µM)

Settings	minimum inhibitory concentration [mg/L]
Neisseria bacilliformis	2 (≈ 2.67 µM)
Neisseria gonorrhoeae	0.125 (≈ 0.167 µM)
